One series relates to OB1 B cells. Description: ERK1/2 phosphorylation in OB1 B cells. The class given is cell-based, mouse. As to conditions: 0.5 µM, 1 and 3 min; AGA 17-mer 3 min (Fig. 2 B).
Series [1] has as its system OB1-MHC class II GFP B cells. Put plainly: Peptide internalization by confocal microscopy, OB1 MHC II GFP B cells. The note with it: Alexa Fluor 647-conjugated versions, 1 µM, 10 min, washed, confocal microscopy (Fig. 1 F). The class given is cell-based, mouse.
Series [2] is described as follows: Solubility and aggregation of peptide. In kind it is physicochemical.

Ends that are not written are not given here.

FDKLPGAGASIEAQGGK [AGA 17-mer]: in the series with OB1 B cells, the “ERK1/2 phosphorylation, nested peptides” value is “did not stimulate”. For the same sequence, the “antigen internalization in OB1-MHC class II GFP B cells” value in series [1] is “did not detect any”. Turning to FDKLPGFGDSIEAQGGK [FGD 17-mer], in series [2], the water solubility entry is “water-soluble”.

The values above are taken from publication PMC3920557 (The Journal of Experimental Medicine, 2014).
